Test results published in ChEMBL document CHEMBL1926600, “Design, synthesis and biological evaluation of cycloalkyl arylpyrimidines (CAPYs) as HIV-1 NNRTIs” (Bioorg Med Chem, 2011).
pEC50: −log10 of the molar value.

Tests used:
[1] = tested on: Human immunodeficiency virus 1; test: Antiviral activity against HIV1 harboring reverse transcriptase K103N/Y181C mutant infected in human MT4 cells assessed as reduction in virus-induced cytopathogenicity after 5 days by MTT assay; type: functional, organism-based; conditions: Human immunodeficiency virus 1, MT4, 120 h
[2] = tested on: Human immunodeficiency virus 2; test: Antiviral activity against HIV2 ROD infected in human MT4 cells assessed as reduction in virus-induced cytopathogenicity after 5 days by MTT assay; type: functional, organism-based; conditions: Human immunodeficiency virus 2, ISOLATE ROD, MT4, 120 h
[3] = Cytotoxicity against human MT4 cells measured by MTT assay; type: cell-based
[4] = tested on: Human immunodeficiency virus 1; test: Antiviral activity against wild type HIV1 3B infected in human MT4 cells assessed as reduction in virus-induced cytopathogenicity after 5 days by MTT assay; type: functional, organism-based; conditions: Human immunodeficiency virus 1, 3B, MT4, 120 h
[5] = Selectivity index, ratio of CC50 for human MT4 cells to EC50 for HIV1 3B; type: toxicity, cell-based; conditions: read-out: Ratio CC50/EC50

SMILES | pEC50 [1] | pEC50 [2] | CC50 [3] [nM] | pEC50 [4] | selectivity ratio [5]
Cc1cc(SC2CCCCC2)nc(Nc2ccc(C#N)cc2)n1 | < 3.72 | < 3.72 | ≥ 192000 | 7.02 | ≥ 2010
N#Cc1ccc(Nc2nccc(OC3CCCCC3)n2)cc1 | < 3.49 | < 3.49 | 322000 | 5.94 | 276
N#Cc1ccc(Nc2nccc(OC3CCCC3)n2)cc1 | < 3.47 | 4.50 | ≥ 340000 | 5.17 | ≥ 51
Cc1cnc(Nc2ccc(C#N)cc2)nc1OC1CCCCC1 | < 4.51 | < 4.51 | 31200 | 5.19 | 5
Cc1cnc(Nc2ccc(C#N)cc2)nc1OC1CCCC1 | – | < 5.00 | 9990 | < 5.00 | < 1
Cc1cc(OC2CCCCC2)nc(Nc2ccc(C#N)cc2)n1 | – | < 6.49 | 320 | < 6.49 | < 1
Cc1cc(OC2CCCC2)nc(Nc2ccc(C#N)cc2)n1 | – | < 5.98 | 1050 | < 5.98 | < 1
N#Cc1ccc(Nc2nccc(NC3CCCCC3)n2)cc1 | < 5.13 | < 5.13 | 7330 | 6.02 | 8
N#Cc1ccc(Nc2nccc(NC3CCCC3)n2)cc1 | < 5.04 | < 5.04 | 9130 | 5.80 | 6
N#Cc1ccc(Nc2nccc(NC3CC3)n2)cc1 | – | < 5.92 | 1190 | < 5.92 | < 1
Cc1cnc(Nc2ccc(C#N)cc2)nc1NC1CCCCC1 | – | < 5.89 | 1300 | < 5.89 | < 1
Cc1cnc(Nc2ccc(C#N)cc2)nc1NC1CCCC1 | – | < 6.77 | 170 | < 6.77 | < 1
Cc1cnc(Nc2ccc(C#N)cc2)nc1NC1CC1 | – | < 6.44 | 360 | < 6.44 | < 1
Cc1cc(NC2CCCCC2)nc(Nc2ccc(C#N)cc2)n1 | – | < 6.47 | 340 | < 6.47 | < 1
Cc1cc(NC2CCCC2)nc(Nc2ccc(C#N)cc2)n1 | – | < 6.51 | 310 | < 6.51 | < 1
Cc1cc(NC2CC2)nc(Nc2ccc(C#N)cc2)n1 | – | < 7.06 | 88 | < 7.06 | < 1
N#Cc1ccc(Nc2nccc(SC3CCCCC3)n2)cc1 | < 3.40 | < 3.40 | > 403000 | 7.26 | > 7290
Cc1cnc(Nc2ccc(C#N)cc2)nc1SC1CCCCC1 | < 4.48 | < 4.48 | 33400 | 6.37 | 79
CC(C)Nc1cccnc1N1CCN(C(=O)c2cc3cc(NS(C)(=O)=O)ccc3[nH]2)CC1 [DELAVIRDINE] | < 5.36 | – | > 4390 | 7.80 | > 274
O=C1Nc2ccc(Cl)cc2[C@@](C#CC2CC2)(C(F)(F)F)O1 [EFAVIRENZ] | 6.29 | – | > 6340 | 8.27 | > 1150
Cc1cc(C#N)cc(C)c1Oc1nc(Nc2ccc(C#N)cc2)nc(N)c1Br [ETRAVIRINE] | 7.47 | < 4.56 | 27800 | 8.66 | 12900
Cc1ccnc2c1NC(=O)c1cccnc1N2C1CC1 [NEVIRAPINE] | 5.46 | < 4.82 | > 15000 | – | –
Cc1cn([C@H]2C[C@H](N=[N+]=[N-])[C@@H](CO)O2)c(=O)[nH]c1=O [ZIDOVUDINE] | 7.89 | 8.12 | ≥ 46400 | 8.12 | ≥ 6360
